In US8952024B2, “Herbicidal pyrimidone derivatives” (E I du Pont de Nemours and Company, priority 2009, dated 2015):

What was measured:
Test in all cases: Test B pre-/postemergence plant response
Type in all cases: in vivo
[1] = system: Surinam grass (Brachiaria decumbens); details: for Surinam Grass plant response rating (0 to 100 scale): 62 g ai/ha, 0 is no effect, 13 to 15 days
Outline: (§1)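 Plants treated either at seeding (loam/sand soil) or postemergence at 2 to 18 cm height, using a surfactant-containing non-phytotoxic solvent formulation. Evaluation was visual after 13 to 15 days, 0 to 100 scale relative to controls.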

[2] = system: Italian ryegrass (Lolium multiflorum); details: for Ryegrass, Italian plant response rating (0 to 100 scale): 62 g ai/ha, 0 is no effect, 13 to 15 days
Outline: as §1

[3] = system: ragweed (common ragweed, Ambrosia elatior); details: for Ragweed plant response rating (0 to 100 scale): 62 g ai/ha, 0 is no effect, 13 to 15 days
Outline: as §1

[4] = system: yellow nutsedge (Cyperus esculentus); details: for Nutsedge, Yellow plant response rating (0 to 100 scale): 62 g ai/ha, 0 is no effect, 13 to 15 days
Outline: as §1

[5] = system: pigweed (Amaranthus retroflexus); details: for Pigweed plant response rating (0 to 100 scale): 62 g ai/ha, 0 is no effect, 13 to 15 days
Outline: as §1

[6] = system: green foxtail (Setaria viridis); details: for Foxtail, Green plant response rating (0 to 100 scale): 62 g ai/ha, 0 is no effect, 13 to 15 days
Outline: as §1

[7] = system: lambsquarters (Chenopodium album); details: for Lambsquarters plant response rating (0 to 100 scale): 62 g ai/ha, 0 is no effect, 13 to 15 days
Outline: as §1

[8] = system: woolly cupgrass (Eriochloa villosa); details: for Cupgrass, Woolly plant response rating (0 to 100 scale): 62 g ai/ha, 0 is no effect, 13 to 15 days
Outline: as §1

[9] = system: velvetleaf (Abutilon theophrasti); details: for Velvetleaf plant response rating (0 to 100 scale): 62 g ai/ha, 0 is no effect, 13 to 15 days
Outline: as §1

[10] = system: large crabgrass (Digitaria sanguinalis); details: for Crabgrass, Large plant response rating (0 to 100 scale): 62 g ai/ha, 0 is no effect, 13 to 15 days
Outline: as §1

[11] = system: downy bromegrass (Bromus tectorum); details: for Bromegrass, Downy plant response rating (0 to 100 scale): 62 g ai/ha, 0 is no effect, 13 to 15 days
Outline: as §1

[12] = system: wheat (Triticum aestivum); details: for Wheat plant response rating (0 to 100 scale): 62 g ai/ha, 0 is no effect, 13 to 15 days
Outline: as §1

[13] = system: goosegrass (Eleusine indica); details: for Goosegrass plant response rating (0 to 100 scale): 62 g ai/ha, 0 is no effect, 13 to 15 days
Outline: as §1

[14] = 31 g ai/ha, postemergence, scale 0 to 100, 0 is no effect, 100 is complete control
[15] = postemergence, 100 is complete control
[16] = Postemergence, 250 g ai/ha, scale 0 to 100 (0 no effect, 100 complete control)
[17] = Postemergence, 125 g ai/ha, visual rating after 13 to 15 days, scale 0 (no effect) to 100 (complete control)

## CCCCn1c(-c2ccccc2)ncc(C(=O)C2=C(O)CCCC2=O)c1=O [Compound 86]
[1]; [14]
  Plant response rating, Surinam Grass: 80
[1]; [15]
  Surinam Grass plant response rating (0 to 100 scale): 95
[1]; [16]
  Plant response rating, Surinam Grass: 100
[2]; [14]
  Plant response rating, Ryegrass, Italian: 25
[2]; [15]
  Ryegrass, Italian plant response rating (0 to 100 scale): 30
[2]; [16]
  Plant response rating, Ryegrass, Italian: 60
[3]; [14]
  Plant response rating, Ragweed: 80
[3]; [15]
  Ragweed plant response rating (0 to 100 scale): 90
[3]; [16]
  Plant response rating, Ragweed: 98
[4]; [14]
  Plant response rating, Nutsedge, Yellow: 65
[4]; [15]
  Nutsedge, Yellow plant response rating (0 to 100 scale): 70
[4]; [16]
  Plant response rating, Nutsedge, Yellow: 85
[5]; [14]
  Plant response rating, Pigweed: 98
[5]; [15]
  Pigweed plant response rating (0 to 100 scale): 100
[5]; [16]
  Plant response rating, Pigweed: 100
[6]; [14]
  Plant response rating, Foxtail, Green: 70
[6]; [15]
  Foxtail, Green plant response rating (0 to 100 scale): 95
[6]; [16]
  Plant response rating, Foxtail, Green: 100
[7]; [14]
  Plant response rating, Lambsquarters: 100
[7]; [15]
  Lambsquarters plant response rating (0 to 100 scale): 100
[7]; [16]
  Plant response rating, Lambsquarters: 100
[8]; [14]
  Plant response rating, Cupgrass, Woolly: 75
[8]; [15]
  Cupgrass, Woolly plant response rating (0 to 100 scale): 85
[8]; [17]
  Plant response rating, Cupgrass, Woolly: 95
[8]; [16]
  Plant response rating, Cupgrass, Woolly: 95
[9]; [14]
  Plant response rating, Velvetleaf: 98
[9]; [15]
  Velvetleaf plant response rating (0 to 100 scale): 100
[9]; [16]
  Plant response rating, Velvetleaf: 100
[10]; [14]
  Plant response rating, Crabgrass, Large: 85
[10]; [15]
  Crabgrass, Large plant response rating (0 to 100 scale): 98
[10]; [17]
  Plant response rating, Crabgrass, Large: 98
[10]; [16]
  Plant response rating, Crabgrass, Large: 98
[11]; [14]
  Plant response rating, Bromegrass, Downy: 10
[11]; [15]
  Bromegrass, Downy plant response rating (0 to 100 scale): 10
[11]; [17]
  Plant response rating, Bromegrass, Downy: 35
[11]; [16]
  Plant response rating, Bromegrass, Downy: 50
[12]; [14]
  Plant response rating, Wheat: 5
[12]; [15]
  Wheat plant response rating (0 to 100 scale): 35
[12]; [16]
  Plant response rating, Wheat: 45
[13]; [14]
  Plant response rating, Goosegrass: 70
[13]; [15]
  Goosegrass plant response rating (0 to 100 scale): 75
[13]; [16]
  Plant response rating, Goosegrass: 95

## O=C1CCCC(OC(=O)C2CC2)=C1C(=O)c1cnc(-c2ccccc2)n(-c2ccccc2)c1=O [Compound 88]
[1]; [14]
  Plant response rating, Surinam Grass: 95
[1]; [15]
  Surinam Grass plant response rating (0 to 100 scale): 95
[1]; [16]
  Plant response rating, Surinam Grass: 98
[2]; [14]
  Plant response rating, Ryegrass, Italian: 5
[2]; [15]
  Ryegrass, Italian plant response rating (0 to 100 scale): 5
[2]; [16]
  Plant response rating, Ryegrass, Italian: 80
[3]; [14]
  Plant response rating, Ragweed: 75
[3]; [15]
  Ragweed plant response rating (0 to 100 scale): 80
[3]; [16]
  Plant response rating, Ragweed: 98
[4]; [14]
  Plant response rating, Nutsedge, Yellow: 25
[4]; [15]
  Nutsedge, Yellow plant response rating (0 to 100 scale): 65
[4]; [16]
  Plant response rating, Nutsedge, Yellow: 75
[5]; [14]
  Plant response rating, Pigweed: 98
[5]; [15]
  Pigweed plant response rating (0 to 100 scale): 100
[5]; [16]
  Plant response rating, Pigweed: 100
[6]; [14]
  Plant response rating, Foxtail, Green: 95
[6]; [15]
  Foxtail, Green plant response rating (0 to 100 scale): 98
[6]; [16]
  Plant response rating, Foxtail, Green: 100
[7]; [14]
  Plant response rating, Lambsquarters: 95
[7]; [15]
  Lambsquarters plant response rating (0 to 100 scale): 98
[7]; [16]
  Plant response rating, Lambsquarters: 100
[8]; [14]
  Plant response rating, Cupgrass, Woolly: 75
[8]; [15]
  Cupgrass, Woolly plant response rating (0 to 100 scale): 80
[8]; [17]
  Plant response rating, Cupgrass, Woolly: 90
[8]; [16]
  Plant response rating, Cupgrass, Woolly: 95
[9]; [14]
  Plant response rating, Velvetleaf: 80
[9]; [15]
  Velvetleaf plant response rating (0 to 100 scale): 90
[9]; [16]
  Plant response rating, Velvetleaf: 98
[10]; [14]
  Plant response rating, Crabgrass, Large: 95
[10]; [15]
  Crabgrass, Large plant response rating (0 to 100 scale): 98
[10]; [17]
  Plant response rating, Crabgrass, Large: 98
[10]; [16]
  Plant response rating, Crabgrass, Large: 98
[11]; [14]
  Plant response rating, Bromegrass, Downy: 40
[11]; [15]
  Bromegrass, Downy plant response rating (0 to 100 scale): 45
[11]; [17]
  Plant response rating, Bromegrass, Downy: 45
[11]; [16]
  Plant response rating, Bromegrass, Downy: 60
[12]; [14]
  Plant response rating, Wheat: 0
[12]; [15]
  Wheat plant response rating (0 to 100 scale): 5
[12]; [16]
  Plant response rating, Wheat: 5
[13]; [14]
  Plant response rating, Goosegrass: 65
[13]; [15]
  Goosegrass plant response rating (0 to 100 scale): 70
[13]; [16]
  Plant response rating, Goosegrass: 70
